Measured values published in ChEMBL document CHEMBL3132769, “Fragment growing to retain or alter the selectivity of anchored kinase hinge-binding fragments” (Medchemcomm, 2014).

Legend:
[1] = biological target: Vascular endothelial growth factor receptor 2 (Homo sapiens) (UniProt P35968); experiment: Inhibition of human KDR cytoplasmic domain expressed in baculovirus assessed as substrate phosphorylation using fluorescence-labelled peptides as substrate at 0.06 uM after 90 mins by microfluidic peptide phosphorylation assay
Vascular endothelial growth factor receptor 2 (Homo sapiens), sequence (P35968 whole entry, the tested form may be a part): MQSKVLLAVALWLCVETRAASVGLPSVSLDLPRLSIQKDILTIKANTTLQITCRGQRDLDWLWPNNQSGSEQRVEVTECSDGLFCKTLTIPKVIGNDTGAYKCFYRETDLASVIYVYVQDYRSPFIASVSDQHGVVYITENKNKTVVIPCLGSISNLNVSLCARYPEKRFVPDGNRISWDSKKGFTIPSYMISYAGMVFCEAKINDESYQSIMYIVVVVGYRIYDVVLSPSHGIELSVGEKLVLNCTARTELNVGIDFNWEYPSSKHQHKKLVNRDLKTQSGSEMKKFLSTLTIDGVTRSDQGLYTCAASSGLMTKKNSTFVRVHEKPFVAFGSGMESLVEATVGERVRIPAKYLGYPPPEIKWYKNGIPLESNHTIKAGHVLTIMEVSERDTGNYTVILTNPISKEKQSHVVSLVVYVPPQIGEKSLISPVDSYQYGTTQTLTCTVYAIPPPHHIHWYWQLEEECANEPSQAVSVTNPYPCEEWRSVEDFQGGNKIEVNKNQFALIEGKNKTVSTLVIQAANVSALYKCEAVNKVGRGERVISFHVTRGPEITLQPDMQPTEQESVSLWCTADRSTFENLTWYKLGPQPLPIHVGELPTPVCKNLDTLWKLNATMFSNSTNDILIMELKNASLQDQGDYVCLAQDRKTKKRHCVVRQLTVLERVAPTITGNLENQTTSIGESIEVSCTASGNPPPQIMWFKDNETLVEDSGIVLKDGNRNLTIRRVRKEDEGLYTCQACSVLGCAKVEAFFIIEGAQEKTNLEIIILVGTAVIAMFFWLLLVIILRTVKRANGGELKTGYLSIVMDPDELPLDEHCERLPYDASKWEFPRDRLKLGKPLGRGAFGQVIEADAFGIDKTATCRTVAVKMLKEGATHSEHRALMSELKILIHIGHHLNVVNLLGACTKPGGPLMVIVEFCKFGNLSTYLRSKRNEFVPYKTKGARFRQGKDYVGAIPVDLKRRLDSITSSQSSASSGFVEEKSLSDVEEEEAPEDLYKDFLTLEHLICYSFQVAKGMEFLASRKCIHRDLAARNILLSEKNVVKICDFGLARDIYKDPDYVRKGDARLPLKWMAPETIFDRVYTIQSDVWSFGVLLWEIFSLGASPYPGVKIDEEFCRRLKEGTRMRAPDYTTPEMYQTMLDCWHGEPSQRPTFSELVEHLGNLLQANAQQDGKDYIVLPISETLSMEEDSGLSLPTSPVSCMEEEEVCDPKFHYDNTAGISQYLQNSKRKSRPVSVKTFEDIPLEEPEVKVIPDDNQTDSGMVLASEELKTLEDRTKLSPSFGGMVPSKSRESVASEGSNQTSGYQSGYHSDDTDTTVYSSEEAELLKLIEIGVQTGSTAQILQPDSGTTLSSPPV

[2] = biological target: T1, Serine/threonine-protein kinase Sgk2 (Homo sapiens) (UniProt Q9HBY8); experiment: Inhibition of human full length SGK2 expressed in baculovirus assessed as substrate phosphorylation using fluorescence-labelled peptides as substrate at 0.06 uM after 90 mins by microfluidic peptide phosphorylation assay
T1 sequence (whole entry): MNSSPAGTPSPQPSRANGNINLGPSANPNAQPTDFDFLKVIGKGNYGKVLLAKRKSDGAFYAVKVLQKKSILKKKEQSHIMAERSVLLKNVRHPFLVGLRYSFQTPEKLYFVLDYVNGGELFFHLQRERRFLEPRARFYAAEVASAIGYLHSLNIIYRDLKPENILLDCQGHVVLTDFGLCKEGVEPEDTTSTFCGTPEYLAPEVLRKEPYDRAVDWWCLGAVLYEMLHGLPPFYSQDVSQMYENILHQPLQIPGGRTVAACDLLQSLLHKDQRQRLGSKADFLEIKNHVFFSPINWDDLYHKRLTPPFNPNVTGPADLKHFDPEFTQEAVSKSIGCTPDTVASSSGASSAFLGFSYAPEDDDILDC

[3] = biological target: Tyrosine-protein kinase Lck (Homo sapiens) (UniProt P06239); experiment: Inhibition of human full length LCK expressed in baculovirus assessed as substrate phosphorylation using fluorescence-labelled peptides as substrate at 70 uM after 90 mins by microfluidic peptide phosphorylation assay
Tyrosine-protein kinase Lck (Homo sapiens), sequence (P06239 2-509 limits assumed): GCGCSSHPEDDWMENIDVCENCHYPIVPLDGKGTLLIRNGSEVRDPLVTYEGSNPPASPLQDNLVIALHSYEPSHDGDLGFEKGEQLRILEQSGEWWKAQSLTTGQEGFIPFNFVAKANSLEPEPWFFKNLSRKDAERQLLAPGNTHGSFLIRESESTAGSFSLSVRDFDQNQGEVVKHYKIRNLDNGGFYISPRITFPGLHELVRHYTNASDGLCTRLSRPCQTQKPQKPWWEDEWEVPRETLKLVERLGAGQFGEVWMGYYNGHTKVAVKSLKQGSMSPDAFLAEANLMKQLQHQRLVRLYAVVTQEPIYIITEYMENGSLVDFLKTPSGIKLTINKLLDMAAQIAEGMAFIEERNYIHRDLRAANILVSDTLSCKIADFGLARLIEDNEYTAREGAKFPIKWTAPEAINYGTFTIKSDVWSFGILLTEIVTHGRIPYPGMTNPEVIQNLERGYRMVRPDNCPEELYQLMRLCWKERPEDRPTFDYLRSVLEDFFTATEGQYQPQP

[4] = biological target: T2, Cytoplasmic tyrosine-protein kinase BMX (Homo sapiens) (UniProt P51813); experiment: Inhibition of human full length BMX expressed in baculovirus assessed as substrate phosphorylation using fluorescence-labelled peptides as substrate at 0.2 uM after 90 mins by microfluidic peptide phosphorylation assay
T2 sequence (whole entry): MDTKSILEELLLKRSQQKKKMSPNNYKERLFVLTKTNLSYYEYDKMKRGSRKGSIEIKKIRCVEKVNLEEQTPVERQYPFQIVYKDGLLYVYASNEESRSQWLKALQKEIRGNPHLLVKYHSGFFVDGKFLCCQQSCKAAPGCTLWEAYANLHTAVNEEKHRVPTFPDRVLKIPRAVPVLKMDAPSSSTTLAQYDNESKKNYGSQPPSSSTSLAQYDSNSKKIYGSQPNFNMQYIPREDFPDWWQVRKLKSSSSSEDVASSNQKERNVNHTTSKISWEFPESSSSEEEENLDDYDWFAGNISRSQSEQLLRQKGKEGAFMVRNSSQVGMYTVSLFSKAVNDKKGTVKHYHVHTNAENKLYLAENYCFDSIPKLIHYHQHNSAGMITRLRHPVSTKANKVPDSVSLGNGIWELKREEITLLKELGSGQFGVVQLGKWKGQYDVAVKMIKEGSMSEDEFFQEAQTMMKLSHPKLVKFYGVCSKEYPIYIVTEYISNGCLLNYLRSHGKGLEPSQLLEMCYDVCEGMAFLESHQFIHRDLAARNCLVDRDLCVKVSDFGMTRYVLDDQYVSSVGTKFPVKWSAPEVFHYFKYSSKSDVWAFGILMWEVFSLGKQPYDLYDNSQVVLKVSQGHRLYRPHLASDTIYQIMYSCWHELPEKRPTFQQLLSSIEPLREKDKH

[5] = biological target: Casein kinase I isoform delta (Homo sapiens) (UniProt P48730); experiment: Inhibition of human CK1D catalytic domain expressed in Escherichia coli cell assessed as substrate phosphorylation using fluorescence-labelled peptides as substrate at 9 uM after 90 mins by microfluidic peptide phosphorylation assay
Casein kinase I isoform delta (Homo sapiens), sequence (P48730 whole entry, looked up, the tested form may be a part, canonical isoform): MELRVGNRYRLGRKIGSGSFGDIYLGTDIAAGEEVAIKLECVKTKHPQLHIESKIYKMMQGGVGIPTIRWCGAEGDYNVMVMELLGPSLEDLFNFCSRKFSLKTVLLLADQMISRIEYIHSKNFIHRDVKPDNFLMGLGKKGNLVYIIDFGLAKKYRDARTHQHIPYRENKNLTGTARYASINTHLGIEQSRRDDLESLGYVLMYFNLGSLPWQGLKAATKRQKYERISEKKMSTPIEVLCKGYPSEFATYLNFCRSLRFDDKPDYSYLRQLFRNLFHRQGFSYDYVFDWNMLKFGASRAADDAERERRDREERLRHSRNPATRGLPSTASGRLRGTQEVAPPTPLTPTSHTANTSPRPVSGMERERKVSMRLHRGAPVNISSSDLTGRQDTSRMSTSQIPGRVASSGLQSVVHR

[6] = biological target: T3, Serine/threonine-protein kinase BRSK2 (Homo sapiens) (UniProt Q8IWQ3); experiment: Inhibition of human truncated BRSK2 expressed in baculovirus assessed as substrate phosphorylation using fluorescence-labelled peptides as substrate at 2 uM after 90 mins by microfluidic peptide phosphorylation assay
T3 sequence (whole entry): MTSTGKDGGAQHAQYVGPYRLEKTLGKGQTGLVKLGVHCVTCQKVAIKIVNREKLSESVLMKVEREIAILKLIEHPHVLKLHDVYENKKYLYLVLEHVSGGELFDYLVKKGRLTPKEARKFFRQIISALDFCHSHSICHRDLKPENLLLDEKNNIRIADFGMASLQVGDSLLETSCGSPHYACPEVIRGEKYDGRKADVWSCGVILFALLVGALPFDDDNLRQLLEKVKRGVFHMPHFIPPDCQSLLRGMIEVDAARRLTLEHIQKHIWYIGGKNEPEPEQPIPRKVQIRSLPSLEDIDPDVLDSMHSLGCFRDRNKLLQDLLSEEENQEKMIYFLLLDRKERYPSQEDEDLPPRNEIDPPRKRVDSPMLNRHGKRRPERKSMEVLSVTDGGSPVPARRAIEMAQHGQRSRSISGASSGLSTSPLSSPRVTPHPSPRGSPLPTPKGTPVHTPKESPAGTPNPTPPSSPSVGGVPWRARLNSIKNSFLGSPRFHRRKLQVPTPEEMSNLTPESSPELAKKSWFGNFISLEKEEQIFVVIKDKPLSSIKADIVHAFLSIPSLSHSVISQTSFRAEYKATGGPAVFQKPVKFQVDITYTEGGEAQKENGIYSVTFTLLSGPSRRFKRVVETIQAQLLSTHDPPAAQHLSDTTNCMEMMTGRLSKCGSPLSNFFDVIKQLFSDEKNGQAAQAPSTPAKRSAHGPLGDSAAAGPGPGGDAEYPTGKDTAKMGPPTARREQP

[7] = biological target: Fibroblast growth factor receptor 2 (Homo sapiens) (UniProt P21802); experiment: Inhibition of human FGFR2 catalytic domain expressed in baculovirus assessed as substrate phosphorylation using fluorescence-labelled peptides as substrate at 8 uM after 90 mins by microfluidic peptide phosphorylation assay
Fibroblast growth factor receptor 2 (Homo sapiens), sequence (P21802 22-821 limits assumed): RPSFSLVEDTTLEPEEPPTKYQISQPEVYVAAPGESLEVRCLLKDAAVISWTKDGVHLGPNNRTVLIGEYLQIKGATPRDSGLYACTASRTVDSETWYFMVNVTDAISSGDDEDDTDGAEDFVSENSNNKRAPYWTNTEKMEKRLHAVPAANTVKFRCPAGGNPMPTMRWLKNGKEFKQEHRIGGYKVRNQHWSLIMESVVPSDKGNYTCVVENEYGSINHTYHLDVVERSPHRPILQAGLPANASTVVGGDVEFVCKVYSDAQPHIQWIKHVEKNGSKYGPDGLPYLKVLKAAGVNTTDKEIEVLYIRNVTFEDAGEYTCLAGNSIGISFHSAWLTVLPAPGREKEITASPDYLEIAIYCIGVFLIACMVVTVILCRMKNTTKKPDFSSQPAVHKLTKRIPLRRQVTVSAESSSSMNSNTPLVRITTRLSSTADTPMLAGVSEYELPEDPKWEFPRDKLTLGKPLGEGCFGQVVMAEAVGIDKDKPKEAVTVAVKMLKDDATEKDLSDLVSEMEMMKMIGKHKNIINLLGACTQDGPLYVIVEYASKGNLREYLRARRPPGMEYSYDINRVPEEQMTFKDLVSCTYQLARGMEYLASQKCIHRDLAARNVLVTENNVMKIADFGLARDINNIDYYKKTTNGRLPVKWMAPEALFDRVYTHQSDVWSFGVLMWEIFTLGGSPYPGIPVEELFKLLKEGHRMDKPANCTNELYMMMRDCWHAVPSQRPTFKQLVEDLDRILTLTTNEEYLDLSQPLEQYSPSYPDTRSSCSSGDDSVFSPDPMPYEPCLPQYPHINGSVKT

[8] = biological target: Epidermal growth factor receptor (Homo sapiens) (UniProt P00533); experiment: Inhibition of human EGFR catalytic domain expressed in baculovirus assessed as substrate phosphorylation using fluorescence-labelled peptides as substrate at 8 uM after 90 mins by microfluidic peptide phosphorylation assay
Epidermal growth factor receptor (Homo sapiens), sequence (P00533 whole entry, the tested form may be a part): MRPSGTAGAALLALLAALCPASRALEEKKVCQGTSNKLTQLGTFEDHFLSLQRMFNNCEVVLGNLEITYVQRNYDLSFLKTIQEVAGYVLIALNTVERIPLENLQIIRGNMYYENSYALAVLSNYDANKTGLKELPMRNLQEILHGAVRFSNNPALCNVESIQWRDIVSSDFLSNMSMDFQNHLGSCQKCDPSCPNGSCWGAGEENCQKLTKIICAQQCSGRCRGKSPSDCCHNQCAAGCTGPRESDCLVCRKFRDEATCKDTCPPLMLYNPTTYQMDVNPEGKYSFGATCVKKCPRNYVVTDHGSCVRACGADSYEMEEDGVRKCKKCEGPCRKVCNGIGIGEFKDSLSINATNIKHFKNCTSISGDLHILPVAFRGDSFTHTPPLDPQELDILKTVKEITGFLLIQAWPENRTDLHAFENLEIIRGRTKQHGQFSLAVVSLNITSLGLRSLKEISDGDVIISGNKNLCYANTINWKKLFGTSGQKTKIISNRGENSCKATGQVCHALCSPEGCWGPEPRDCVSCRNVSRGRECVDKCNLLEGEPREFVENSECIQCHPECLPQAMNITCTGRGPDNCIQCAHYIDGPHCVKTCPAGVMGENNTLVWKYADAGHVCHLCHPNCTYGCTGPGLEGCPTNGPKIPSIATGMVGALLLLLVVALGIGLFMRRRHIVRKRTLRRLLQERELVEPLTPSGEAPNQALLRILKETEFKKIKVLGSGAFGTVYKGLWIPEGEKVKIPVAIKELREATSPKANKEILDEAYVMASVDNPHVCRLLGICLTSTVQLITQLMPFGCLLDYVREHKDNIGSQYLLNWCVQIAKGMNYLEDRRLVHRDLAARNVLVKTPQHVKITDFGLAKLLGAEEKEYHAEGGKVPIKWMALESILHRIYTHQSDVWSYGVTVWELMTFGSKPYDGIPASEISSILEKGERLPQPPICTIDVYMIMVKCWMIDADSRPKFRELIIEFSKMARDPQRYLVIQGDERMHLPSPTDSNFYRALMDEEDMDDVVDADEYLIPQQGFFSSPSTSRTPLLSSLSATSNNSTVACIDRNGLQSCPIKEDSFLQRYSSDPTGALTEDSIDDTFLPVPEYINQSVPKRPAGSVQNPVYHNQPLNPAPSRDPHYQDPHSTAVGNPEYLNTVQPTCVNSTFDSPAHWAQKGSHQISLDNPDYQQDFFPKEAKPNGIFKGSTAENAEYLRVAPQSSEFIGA

[9] = biological target: T4, Testis-specific serine/threonine-protein kinase 1 (Homo sapiens) (UniProt Q9BXA7); conditions: 0.1 uM
T4 sequence (whole entry): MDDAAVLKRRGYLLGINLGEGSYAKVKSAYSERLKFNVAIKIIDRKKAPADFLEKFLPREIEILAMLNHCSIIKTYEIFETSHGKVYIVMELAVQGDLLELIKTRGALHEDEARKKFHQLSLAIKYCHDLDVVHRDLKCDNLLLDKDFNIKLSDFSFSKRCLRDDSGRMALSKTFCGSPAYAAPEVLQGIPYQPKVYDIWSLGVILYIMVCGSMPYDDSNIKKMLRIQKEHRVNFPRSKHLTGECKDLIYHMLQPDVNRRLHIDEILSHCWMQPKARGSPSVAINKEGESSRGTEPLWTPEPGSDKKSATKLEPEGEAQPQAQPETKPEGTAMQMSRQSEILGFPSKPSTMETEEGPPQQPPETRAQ
Description: Inhibition of human full length TSSK1 expressed in baculovirus assessed as substrate phosphorylation using fluorescence-labelled peptides as substrate at 0.1 uM after 90 mins by microfluidic peptide phosphorylation assay

[10] = biological target: Protein kinase C beta type (Homo sapiens) (UniProt P05771); conditions: 0.1 uM
Protein kinase C beta type (Homo sapiens), sequence (P05771 2-671 limits assumed): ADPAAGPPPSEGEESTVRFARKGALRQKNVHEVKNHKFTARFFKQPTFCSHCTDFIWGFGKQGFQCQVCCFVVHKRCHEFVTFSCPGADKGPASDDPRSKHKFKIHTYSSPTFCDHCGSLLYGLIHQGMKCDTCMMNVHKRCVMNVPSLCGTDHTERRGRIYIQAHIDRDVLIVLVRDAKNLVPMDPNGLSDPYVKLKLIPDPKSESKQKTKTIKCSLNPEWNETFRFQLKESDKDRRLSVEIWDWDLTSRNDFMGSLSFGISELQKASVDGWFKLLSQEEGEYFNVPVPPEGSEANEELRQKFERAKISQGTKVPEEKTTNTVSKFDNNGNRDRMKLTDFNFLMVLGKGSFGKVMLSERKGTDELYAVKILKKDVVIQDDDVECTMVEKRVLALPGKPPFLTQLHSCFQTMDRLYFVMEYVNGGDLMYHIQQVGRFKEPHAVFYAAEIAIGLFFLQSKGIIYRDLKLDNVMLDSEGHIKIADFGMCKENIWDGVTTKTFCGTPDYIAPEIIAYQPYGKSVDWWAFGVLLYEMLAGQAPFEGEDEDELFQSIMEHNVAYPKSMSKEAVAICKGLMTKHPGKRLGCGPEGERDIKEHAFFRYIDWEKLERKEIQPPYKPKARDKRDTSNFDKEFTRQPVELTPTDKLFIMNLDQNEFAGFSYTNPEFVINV
Description: Inhibition of human full length PKC beta2 expressed in baculovirus assessed as substrate phosphorylation using fluorescence-labelled peptides as substrate at 0.1 uM after 90 mins by microfluidic peptide phosphorylation assay

NC1(Cc2ccc(Cl)cc2)CCN(c2ncnc3[nH]ccc23)CC1
inhibition [1]: 0% | inhibition [2]: 9%

CNCc1ccc(-c2ncnc3[nH]cnc23)cc1
inhibition [3]: 38%

Clc1ccc(C2(c3ccc(-c4ncnc5[nH]cnc45)cc3)CCNCC2)cc1
inhibition [4]: 4%

NCC1CN(c2ncnc3[nH]c4cnccc4c23)CCO1 (stereo not given)
inhibition [5]: 39.5%

NC1CCN(c2ncnc3[nH]ccc23)CC1
inhibition [6]: 2.5%

NCC1CCN(c2ncnc3[nH]ccc23)CC1
inhibition [7]: 29.5% | inhibition [8]: 33%

C[C@H](CN(C)C)Oc1nc(Nc2cc3cccc(Cl)c3cn2)cnc1C#N
inhibition [9]: 0% | inhibition [10]: 0%
